# According to PubChem BioAssay AID1996:
# Conditions: buffer; pH 7.4; 200.0 µM
row,SMILES,solubility kinetic
1,Cc1ccc(-c2csc(NC(=O)c3ccccc3F)c2C(=O)O)cc1,> 53.3 µg/mL
2,CC(=O)c1c(C)[nH]c(C(=O)OCC(=O)Nc2cccnc2Cl)c1C,> 52.5 µg/mL
3,COc1ccc(NC(=O)COC(=O)CC2CCCC2)cc1,> 43.7 µg/mL
4,COc1ccc(NC(=O)c2ccccc2Oc2ccccc2)c(OC)c1,< 0.7 µg/mL
5,Cc1cccc(Nc2nc(-c3ccc(F)c(C)c3)cs2)n1,< 0.2 µg/mL
6,COC(=O)/C(C#N)=C/N(C)C,> 23.1 µg/mL
7,CC(=O)c1ccc(N=C2SCCCN2C(=O)C2CCCCC2)cc1,42.2 µg/mL
8,CCS(=O)(=O)N1CCN=C1SC(C)c1ccccc1 (configuration not stated),41.4 µg/mL
9,O=S1(=O)CCN2C=C(Cl)C=C(Cl)C2=N1,> 38 µg/mL
10,Clc1ccc(C2Nc3cccc4cccc(c34)N2)cc1,7.7 µg/mL
11,CC(C)(C)c1ccc(NC(=O)NC2CCCc3ccccc32)cc1 (configuration not stated),< 0.3 µg/mL
12,Nc1cc(=O)[nH]c(=O)n1-c1ccc(Cl)cc1,> 35.6 µg/mL
13,Cc1c([N+](=O)[O-])c(C(=O)NC2CCCC2)nn1C,> 37.8 µg/mL
14,COc1ccccc1NC(=O)NC(=O)c1ccccc1,0.4 µg/mL
15,Cc1ccc2[nH]cc(CCNC(=O)c3cccs3)c2c1,> 42.7 µg/mL
16,O=C(COc1ccccc1)NC1CCCCCCC1,36.2 µg/mL
17,O=C(CCC(=O)N1CCN(c2ccccc2F)CC1)c1ccc(Cl)s1,19.5 µg/mL
18,COC(=O)c1ccc(N2CCN(C(=O)C3CC3)CC2)c([N+](=O)[O-])c1,> 50 µg/mL
19,O=C(CN1C(=O)NC2(CCCc3ccccc32)C1=O)c1ccccc1F (configuration not stated),10.4 µg/mL
20,Fc1ccc(C2CCCN2Cc2nc(CC3CC3)no2)cc1 (configuration not stated),28.6 µg/mL
21,CC(=O)c1ccc(NC(=S)NCCCn2ccnc2)cc1,> 45.4 µg/mL
22,COc1ccc2[nH]cc(CCN(C)C)c2c1,> 32.7 µg/mL
23,O=C(CCc1ccccc1)NCc1ccc2c(c1)OCO2,> 42.5 µg/mL
24,CN(Cc1cnccn1)Cc1nc(Cc2ccccc2F)no1,> 47 µg/mL

row,SMILES,solubility kinetic
1,CC(C)c1ccc(NC(=S)Nc2ccc3[nH]c(=O)[nH]c3c2)cc1,16.7 µg/mL
2,O=C(CCn1c(=O)oc2cc(Cl)ccc21)Nc1ccc(O)cc1,> 49.9 µg/mL
3,Nn1c(SCC(=O)NCCc2ccc(S(N)(=O)=O)cc2)nnc1C1CCCCC1,> 65.8 µg/mL
4,OCC1OC(Oc2c[nH]c3ccccc23)C(O)C(O)C1O (configuration not stated),> 44.3 µg/mL
5,Cc1cccc(-n2cc(-c3ccccc3)[nH]c2=S)c1,8.7 µg/mL
6,Cc1ccc(C(=O)C[n+]2cccc3cc(C)ccc32)cc1.[Br-],43.8 µg/mL
7,COc1ccc2[nH]c(C(=O)NCc3ccccc3)cc2c1,1.3 µg/mL
8,Cc1cccc(OCCn2ccnc2)c1,20.9 µg/mL
9,COCc1cc(=O)[nH]c(-c2ccccc2OC(F)(F)F)n1,> 45 µg/mL
10,CCc1c(C)c2cc(Cl)c(O)c(CN3CCCC3)c2oc1=O,30.5 µg/mL
11,CCOc1ccc(OCC)c(S(=O)(=O)n2cc(C)nc2CC)c1,10.6 µg/mL
12,Cc1ccc(N(Cc2cc(=O)[nH]c3ccccc23)C(=O)C(C)C)c(C)c1,17.7 µg/mL
13,[Cl-].c1ccc(Cn2c[n+](Cc3ccccc3)cn2)cc1,> 42.9 µg/mL
14,O=CC(Br)P(=O)(N1CCOCC1)N1CCOCC1 (configuration not stated),> 51.2 µg/mL
15,O=C(Oc1ccccc1)N1CCN(c2ccccc2F)CC1,39.5 µg/mL
16,CCOC(=O)CCCNC(=O)CSc1nc2ccc(OCC)cc2[nH]1,51.4 µg/mL
17,O=C(O)c1cccc(-n2c(/C=C/c3ccccc3)nc3ccccc3c2=O)c1,> 55.3 µg/mL
18,CCCC(=NC(C)CC)C1=C(O)CC(c2ccccc2)CC1=O (configuration not stated),39 µg/mL
19,CCc1ccc(CCOc2ccc(CC3SC(=O)NC3=O)cc2)nc1.Cl (configuration not stated),1.8 µg/mL
20,COc1ccc(-c2ccnc(-c3ccncc3)n2)cc1,> 39.5 µg/mL
21,O=C(CN1CCN(c2ccccc2)CC1)Nc1scc2c1c(=O)oc1ccccc12,< 0.3 µg/mL
22,Cc1ccc(OCC(=O)N2CCc3ccccc32)c([N+](=O)[O-])n1,1 µg/mL
23,O=C(NC1CCCc2ccccc21)c1cn2ccccc2n1 (configuration not stated),39.7 µg/mL
